Laboratory results published in publication PMC7307922 (Journal of Medicinal Chemistry, 2020).

Tested on: cells dissociated from mouse dorsal root ganglia
Assay: Intracellular calcium in dorsal root ganglion cells of wild-type and FFA3 KO mice
Type: cell-based
Conditions: 5 μM; DRG cells of wild type vs FFA3 KO mice
Experimental: Colonic innervating DRGs were isolated from the T9-L2 region of the spinal cord of C57/BL6 mice and from FFA3 knock-out animals and immediately placed in cold Hanks’ balanced salt solution (HBSS; Sigma-Aldrich). Isolated DRGs were initially digested with HBSS containing L-cysteine (0.3 mg/mL) and papain (2.0 mg/mL) for 20 min at 37 °C. The solution was removed and replaced with HBSS contain collagenase (4.0 mg/mL) and dispase (4.0 mg/mL) (20 min at 37 °C) for further digestion. The collagenase solution was then replaced with DMEM to stop the reaction. The DRGs were finally dissociated by mechanical trituration using a pipette. Dissociated cells were plated on matrigel-coated coverslips and placed in an incubator (37 °C and 5% CO2). Following a 2 h incubation, cells were flooded with 90% DMEM (Sigma) supplemented with 10% fetal calf serum and 1% PenStrep and further incubated overnight at 37 °C and 5% CO2.
To measure intracellular calcium and its potential regulation, dissociated cells on the coverslips were loaded with Fura 8-AM (3 μM) (Stratech Scientific Limited) for 20 min at 37 °C in the dark. […]

Question: Which “elevation of intracellular calcium levels” value does the source give for `CCCC1C(C(=O)Nc2cc(Cl)ccc2Cl)=C(C)NC2=C1C(=O)CCC2` (stereo not shown) [Compound 57, N-(2,5-Dichlorophenyl)-2-methyl-5-oxo-4-propyl-1,4,5,6,7,8-hexahydroquinoline-3-carboxamide] here?
Answer: large elevation in intracellular calcium levels in wild type but not FFA3 KO cells
